{"source": "patent US10758534B2", "about": "(Vertex Pharmaceuticals Incorporated, priority 2014, dated 2020)"}
{"biological_target": "T1, F508del (Homo sapiens, UniProt P13569, DEL508-508)", "T1 construct": "expressed in transfected cells", "T1 sequence (P13569 with tags, fused parts or gaps DEL508-508)": "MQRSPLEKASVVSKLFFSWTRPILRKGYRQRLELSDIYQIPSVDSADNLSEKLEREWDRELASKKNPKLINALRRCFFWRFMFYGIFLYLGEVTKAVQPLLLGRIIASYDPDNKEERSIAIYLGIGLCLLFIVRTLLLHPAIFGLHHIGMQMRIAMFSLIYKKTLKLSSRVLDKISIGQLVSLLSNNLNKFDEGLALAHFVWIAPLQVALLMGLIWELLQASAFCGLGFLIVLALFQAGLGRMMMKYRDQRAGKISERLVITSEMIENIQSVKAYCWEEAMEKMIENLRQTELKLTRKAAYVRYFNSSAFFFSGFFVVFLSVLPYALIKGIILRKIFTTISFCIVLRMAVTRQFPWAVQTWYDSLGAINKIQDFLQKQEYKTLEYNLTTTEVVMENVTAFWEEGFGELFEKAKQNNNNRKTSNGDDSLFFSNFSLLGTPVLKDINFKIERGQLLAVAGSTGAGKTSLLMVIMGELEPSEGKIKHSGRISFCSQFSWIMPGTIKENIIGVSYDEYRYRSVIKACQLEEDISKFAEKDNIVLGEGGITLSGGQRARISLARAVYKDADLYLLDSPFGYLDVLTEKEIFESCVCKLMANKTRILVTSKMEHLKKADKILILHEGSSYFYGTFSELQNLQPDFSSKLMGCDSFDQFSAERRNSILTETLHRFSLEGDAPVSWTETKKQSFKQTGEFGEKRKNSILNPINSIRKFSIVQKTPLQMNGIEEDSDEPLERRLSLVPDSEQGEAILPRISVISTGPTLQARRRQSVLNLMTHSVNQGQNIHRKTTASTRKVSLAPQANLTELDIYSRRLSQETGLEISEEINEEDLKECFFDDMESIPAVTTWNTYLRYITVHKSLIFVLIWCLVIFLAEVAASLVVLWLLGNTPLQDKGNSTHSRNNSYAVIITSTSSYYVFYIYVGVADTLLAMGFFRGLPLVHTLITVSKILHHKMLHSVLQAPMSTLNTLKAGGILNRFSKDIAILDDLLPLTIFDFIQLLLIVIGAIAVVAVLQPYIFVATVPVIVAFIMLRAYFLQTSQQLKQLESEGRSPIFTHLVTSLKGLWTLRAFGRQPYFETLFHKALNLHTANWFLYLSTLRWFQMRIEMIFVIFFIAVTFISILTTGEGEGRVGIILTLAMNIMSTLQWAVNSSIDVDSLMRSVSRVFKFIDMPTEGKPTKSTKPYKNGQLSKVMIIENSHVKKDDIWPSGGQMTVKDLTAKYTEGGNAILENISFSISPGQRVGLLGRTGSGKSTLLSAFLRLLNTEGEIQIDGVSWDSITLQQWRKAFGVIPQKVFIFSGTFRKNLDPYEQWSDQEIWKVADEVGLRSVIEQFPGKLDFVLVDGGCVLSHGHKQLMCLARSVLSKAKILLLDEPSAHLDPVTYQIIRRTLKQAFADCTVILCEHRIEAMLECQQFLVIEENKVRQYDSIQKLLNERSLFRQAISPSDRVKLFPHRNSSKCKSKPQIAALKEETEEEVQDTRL", "experiment": "Protocol 1: membrane potential optical assay (FLIPR III, voltage sensing dye), identification of potentiator compounds", "assay_type": "cell-based", "conditions": "Table 3, compounds of Table 1", "outline": "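NIH 3T3 fibroblasts stably expressing F508del were cultured at 27° C for 24 hrs for temperature correction, then treated with compounds or DMSO and loaded with a voltage-sensing redistribution dye. Forskolin added with a Cl⁻ gradient activated the channel; membrane-potential fluorescence on FLIPR III reported increased gating.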"}
{"smiles": "CCOc1ccc(-c2ccc(C(=O)NS(=O)(=O)c3ccc[nH]c3=O)c(Oc3c(C)cc(C)cc3C)n2)cc1F", "note": "[Compound 901, 6-(4-ethoxy-3-fluoro-phenyl)-N-[(2-oxo-1H-pyridin-3-yl)sulfonyl]-2-(2,4,6-trimethylphenoxy)pyridine-3-carboxamide]", "EC30": "++ (“++” means between 3 uM and 10 uM)"}
{"smiles": "CCOc1nn(-c2ccc(C(=O)NS(=O)(=O)c3ccc[nH]c3=O)c(N3C[C@@H](C)CC3(C)C)n2)cc1C", "note": "[Compound 1856, 6-(3-ethoxy-4-methyl-pyrazol-1-yl)-N-[(2-oxo-1H-pyridin-3-yl)sulfonyl]-2-[(4S)-2,2,4-trimethylpyrrolidin-1-yl]pyridine-3-carboxamide]", "EC30": "+++ (“+++” means <3 uM)"}
{"smiles": "COc1ccc(C#N)cc1-c1ccc(C(=O)NS(=O)(=O)c2cccc(N)n2)c(Oc2c(C)cc(C)cc2C)n1", "note": "[Compound 1111, N-[(6-amino-2-pyridyl)sulfonyl]-6-(5-cyano-2-methoxy-phenyl)-2-(2,4,6-trimethylphenoxy)pyridine-3-carboxamide]", "EC30": "+++ (“+++” means <3 uM)"}
{"smiles": "CC1CN(c2ncc(C3=CC4CCC3(C)C4(C)C)cc2C(=O)NS(=O)(=O)c2cccc(N)n2)C(C)(C)C1", "note": "(centres unmarked) [Compound 1544, N-[(6-amino-2-pyridyl)sulfonyl]-5-(4,7,7-trimethyl-3-bicyclo[2.2.1]hept-2-enyl)-2-(2,2,4-trimethylpyrrolidin-1-yl)pyridine-3-carboxamide]", "EC30": "+++ (“+++” means <3 uM)"}
{"smiles": "Cc1cc(C)c(Oc2nc(C3(C)CC3)ccc2C(=O)NS(=O)(=O)c2ccc(N)cc2)c(C)c1", "note": "[Compound 1297, N-(4-aminophenyl)sulfonyl-6-(1-methylcyclopropyl)-2-(2,4,6-trimethylphenoxy)pyridine-3-carboxamide]", "EC30": "+++ (“+++” means <3 uM)"}
{"smiles": "Cc1cc(C)c(CN2C(C(=O)NS(=O)(=O)c3cc(N)ccc3C)c3ccccc3C2(C)C)c(C)c1", "note": "(centres unmarked) [Compound 840, N-(5-amino-2-methyl-phenyl)sulfonyl-3,3-dimethyl-2-[(2,4,6-trimethylphenyl)methyl]isoindoline-1-carboxamide]", "EC30": "+++ (“+++” means <3 uM)"}
{"smiles": "CC(C)COc1cc(F)cc(-c2ccc(C(=O)NS(=O)(=O)c3ccn[nH]3)c(N3CC(C)OC(C)C3)n2)c1", "note": "(centres unmarked) [Compound 1119, 2-(2,6-dimethylmorpholin-4-yl)-6-(3-fluoro-5-isobutoxy-phenyl)-N-(1H-pyrazol-5-ylsulfonyl)pyridine-3-carboxamide]", "EC30": "++ (“++” means between 3 uM and 10 uM)"}
{"smiles": "CC(C)(C)c1ccc(C(=O)NS(=O)(=O)c2cccc(N)c2)c(-c2ccc(F)c(F)c2)n1", "note": "[Compound 1217, N-(3-aminophenyl)sulfonyl-6-tert-butyl-2-(3,4-difluorophenyl)pyridine-3-carboxamide]", "EC30": "+ (“+” means greater than 10 uM)"}
{"smiles": "CC(C)COc1cc(F)cc(-c2ccc(C(=O)NS(=O)(=O)N3CCC[C@@H](N)C3)c(N3C[C@@H](C)CC3(C)C)n2)c1", "note": "[Compound 1614, N—[[(3R)-3-amino-1-piperidyl]sulfonyl]-6-(3-fluoro-5-isobutoxy-phenyl)-2-[(4S)-2,2,4-trimethylpyrrolidin-1-yl]pyridine-3-carboxamide]", "EC30": "+++ (“+++” means <3 uM)"}
{"smiles": "CNc1ccc(C(=O)NS(=O)(=O)c2cccc(N)n2)c(Oc2c(C)cc(C)cc2C)n1", "note": "[Compound 983, N-[(6-amino-2-pyridyl)sulfonyl]-6-(methylamino)-2-(2,4,6-trimethylphenoxy)pyridine-3-carboxamide]", "EC30": "++ (“++” means between 3 uM and 10 uM)"}
{"smiles": "Cc1cc(C)c(Oc2nc(-c3ccc4ccn(C)c4c3)ccc2C(=O)NS(=O)(=O)c2cccc(N)n2)c(C)c1", "note": "[Compound 1056, N-[(6-amino-2-pyridyl)sulfonyl]-6-(1-methylindol-6-yl)-2-(2,4,6-trimethylphenoxy)pyridine-3-carboxamide]", "EC30": "+++ (“+++” means <3 uM)"}
